Data on one compound can be found in patent publication US20160106723A1, “METHODS TO SENSE AND TREAT SUBCLINICAL SKIN DAMAGE” (priority 2014, published 2016).

One test concerns normal human skin. Conditions: cited from earlier work.
For test [1], the system named is subclinical skin damage in unblemished skin. Kind of test: Topical treatment of unblemished skin of participants, observed skin reaction (photographs). Conditions: participant. It counts as in vivo, human. An excerpt: The response of sun or UV damaged cells to Imiquimod in these non-suspicious areas are indicative of altered cells. Clearly subclinical skin damage or AK may exist in the skin but may not be clinically evident in their early development as appearing in FIGS. 1A, 2A, 3A, 4A, 5A, 6A, and 7A.
The detailed method of treatment of subclinical skin damage and of inducing an immune cell response in unblemished skin involves topical application of formulation essentially comprising Imiquimod in an effective amount during a cycle of therapy that is in the range of two to four weeks; and observing the skin for the response; wherein the composition is administered once or twice daily during the cycle of therapy, which is repeated at least once on a substantially annual basis.

As for `CC(C)Cn1cnc2c(N)nc3ccccc3c21` [Imiquimod], the “effect on IL-10 production” value with normal human skin was “reduced IL-10 production”. Moreover, in the test with normal human skin, the “effect on resident T cells” value was “induced activation of resident T cells”. Also, the “skin reaction after treatment” value in test [1] (FIG. 1B, chest region, 11 days of treatment, strength about 3.75%) is given as “severe erythema”; in test [1] (FIG. 2B, chest region, fourteen days of treatment, strength about 5.00%), “moderate erythema”; in test [1] (FIG. 3B, chest region, fourteen days of treatment, strength about 3.75%), “moderate erythema”; in test [1] (FIG. 5B, forehead region, fifteen days of treatment, strength about 3.75%), “moderate reaction”; in test [1] (FIG. 6B, scalp region, ten days of treatment, strength about 2.5%), “moderate reaction”; in test [1] (FIG. 7B, cheek region, fourteen days of treatment, strength about 2.5%), “moderate reaction”. Moreover, the “skin reaction after treatment” value in test [1] (FIG. 8A, cheek region, fourteen days of treatment, strength about 2.5%) was “moderate reaction”; in test [1] (FIG. 8B and 8C, forehead region, fourteen days of treatment, strength about 2.5%), “moderate reaction”; in test [1] (FIGS. 4B and 4C, cheek region, twelve days of treatment, strength about 2.5%), “mild reaction”.
